According to BindingDB's records for doi:10.1016/j.ejmech.2019.111921 (University of Kwazulu-Natal, 2020):
pIC50: −log10 of the molar value.

What was measured:
Beta-glucuronidase [1] = molecular target: T1, Beta-glucuronidase (Rattus norvegicus, UniProt P06760); assay: Inhibition of degranulated rat peritoneal mast cells beta-glucuronidase
T1 sequence (P06760 whole entry): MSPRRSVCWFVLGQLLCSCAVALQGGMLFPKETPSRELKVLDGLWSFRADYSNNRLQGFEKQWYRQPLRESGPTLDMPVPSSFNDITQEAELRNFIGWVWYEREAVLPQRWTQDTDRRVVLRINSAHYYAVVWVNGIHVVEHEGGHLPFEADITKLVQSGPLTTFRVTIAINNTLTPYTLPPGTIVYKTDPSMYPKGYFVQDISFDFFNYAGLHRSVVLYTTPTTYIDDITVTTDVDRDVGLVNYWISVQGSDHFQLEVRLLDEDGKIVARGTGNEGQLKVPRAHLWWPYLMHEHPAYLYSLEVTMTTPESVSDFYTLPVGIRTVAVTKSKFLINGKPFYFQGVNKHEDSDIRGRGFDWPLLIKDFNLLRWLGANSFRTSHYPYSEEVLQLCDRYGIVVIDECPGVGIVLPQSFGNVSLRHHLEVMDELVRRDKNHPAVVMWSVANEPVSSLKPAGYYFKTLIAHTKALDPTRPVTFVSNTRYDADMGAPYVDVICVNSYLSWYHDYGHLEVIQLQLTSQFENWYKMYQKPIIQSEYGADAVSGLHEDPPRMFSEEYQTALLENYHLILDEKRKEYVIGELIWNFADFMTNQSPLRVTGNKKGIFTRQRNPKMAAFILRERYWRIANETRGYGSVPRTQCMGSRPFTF

Beta-glucuronidase [2] = molecular target: T1, Beta-glucuronidase; assay: Inhibition of degranulated rat neutrophils beta-glucuronidase
Beta-glucuronidase [3] = molecular target: T2, Beta-glucuronidase (Homo sapiens, UniProt P08236); assay: Inhibition of beta-glucuronidase (unknown origin)
T2 sequence (P08236 whole entry): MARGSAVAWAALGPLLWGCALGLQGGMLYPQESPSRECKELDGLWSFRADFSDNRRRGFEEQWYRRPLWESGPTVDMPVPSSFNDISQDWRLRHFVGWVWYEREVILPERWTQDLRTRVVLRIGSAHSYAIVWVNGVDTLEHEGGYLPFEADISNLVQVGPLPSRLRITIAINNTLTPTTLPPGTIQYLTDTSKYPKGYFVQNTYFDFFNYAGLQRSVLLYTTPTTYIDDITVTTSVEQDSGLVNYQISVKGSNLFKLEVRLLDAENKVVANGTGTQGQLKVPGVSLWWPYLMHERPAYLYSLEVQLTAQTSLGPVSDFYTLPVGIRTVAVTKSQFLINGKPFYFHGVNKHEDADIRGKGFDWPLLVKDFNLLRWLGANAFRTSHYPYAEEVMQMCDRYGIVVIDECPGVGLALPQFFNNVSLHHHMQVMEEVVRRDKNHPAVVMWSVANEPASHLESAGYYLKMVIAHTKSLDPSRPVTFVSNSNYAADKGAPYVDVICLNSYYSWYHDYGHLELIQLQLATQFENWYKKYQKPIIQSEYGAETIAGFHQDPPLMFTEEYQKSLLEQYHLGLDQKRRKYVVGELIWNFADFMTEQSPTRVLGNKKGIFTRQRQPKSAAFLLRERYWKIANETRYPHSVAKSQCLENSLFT

Row | pIC50 (Beta-glucuronidase [1]) | pIC50 (Beta-glucuronidase [2]) | pIC50 (Beta-glucuronidase [3]) | Compound
1 | 4.15 | 5.18 | – | COc1cc(/C=C/C(=O)OC/C(C)=C\Cc2c(O)ccc(C(=O)/C=C/c3ccc(O)cc3)c2O)ccc1O [Gemichalcone A]
2 | – | – | 2.79 | COc1cc([C@@H]2Oc3cc([C@H]4Oc5cc(O)cc(O)c5C(=O)[C@@H]4O)ccc3O[C@H]2CO)ccc1O [Silybin B]
3 | – | 5.24 | – | C/C(=C/Cc1c(O)ccc(C(=O)/C=C/c2ccc(O)cc2)c1O)COC(=O)/C=C/c1ccc(O)cc1 [gemichalcones B]
